Data from ChEMBL document CHEMBL3739395, “Discovery and optimisation of 1-acyl-2-benzylpyrrolidines as potent dual orexin receptor antagonists” (Medchemcomm, 2015).
Active and inactive are the calls of the source. The calls are words filed in the database; no cut-off is given here.

Legend:
[1] = target: T1, Orexin/Hypocretin receptor type 1 (Homo sapiens) (UniProt O43613); assay: Competitive antagonist activity against human orexin-1 receptor expressed in CHO cells assessed as shift in orexin-A CRC at IC50 incubated for 120 mins in presence of orexin-A by Cheng-Prusoff equation analysis; type: cell-based
T1 sequence (whole entry): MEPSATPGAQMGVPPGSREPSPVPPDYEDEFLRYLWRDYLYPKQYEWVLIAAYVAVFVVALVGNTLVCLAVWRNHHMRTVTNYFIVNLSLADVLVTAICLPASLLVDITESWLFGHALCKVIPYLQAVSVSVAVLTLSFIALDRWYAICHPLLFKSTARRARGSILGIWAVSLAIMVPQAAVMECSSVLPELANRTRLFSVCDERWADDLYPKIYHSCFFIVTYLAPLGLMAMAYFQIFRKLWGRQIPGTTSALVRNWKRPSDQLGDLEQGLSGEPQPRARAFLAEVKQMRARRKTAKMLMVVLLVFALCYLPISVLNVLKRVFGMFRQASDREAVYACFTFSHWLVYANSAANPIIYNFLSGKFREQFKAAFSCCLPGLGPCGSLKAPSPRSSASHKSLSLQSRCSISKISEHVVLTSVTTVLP

[2] = target: T2, Orexin/Hypocretin receptor type 1 (Homo sapiens, UniProt O43613); assay: Inhibition of human orexin-1 receptor expressed in CHO cells assessed as calcium release preincubated for 120 mins followed by addition of orexin-A by fluo-4 AM based-FLIPR analysis; type: functional, cell-based
T2 sequence (O43613 whole entry): T1 sequence (whole entry)

Rattus norvegicus [3] = assay: Increase in time spent in quiet wake state in Wistar rat sleep model at 100 mg/kg, po administered as single dose during first 6 hrs of night active period post dose relative to vehicle control; type: functional
[4] = Intrinsic clearance in human liver microsomes at 1 uM; type: ADME; conditions: read-out: CLH
[5] = target: T1, Orexin/Hypocretin receptor type 1 (Homo sapiens); assay: Insurmountable antagonist activity against human orexin-1 receptor expressed in CHO cells assessed as calcium release at IC50 preincubated for 120 mins followed by addition of orexin-A by Cheng-Prusoff equation analysis; type: functional, cell-based
[6] = Drug uptake in Wistar rat cerebrospinal fluid at 100 mg/kg, po measured 3 hrs post dose; type: ADME, organism-based; conditions: read-out: Drug uptake
Rattus norvegicus [7] = assay: Sleep promoting effect in Wistar rat sleep model at 100 mg/kg, po administered as single dose during first 6 hrs of night active period post dose relative to vehicle control; type: functional, organism-based
[8] = Ratio of drug level in brain to plasma of rat; type: ADME; conditions: brain and plasma, read-out: BPR
[9] = Fraction unbound in rat brain; type: ADME, tissue-based
Rattus norvegicus [10] = assay: Increase in time spent in non-rapid eye movement sleep in Wistar rat sleep model at 100 mg/kg, po administered as single dose during first 6 hrs of night active period post dose relative to vehicle control; type: functional
[11] = target: T3, Orexin/Hypocretin receptor type 1 (Rattus norvegicus) (UniProt P56718); assay: Insurmountable antagonist activity against rat orexin-1 receptor expressed in CHO cells assessed as calcium release at IC50 preincubated for 120 mins followed by addition of orexin-A by Cheng-Prusoff equation analysis; type: functional, cell-based
T3 sequence (whole entry): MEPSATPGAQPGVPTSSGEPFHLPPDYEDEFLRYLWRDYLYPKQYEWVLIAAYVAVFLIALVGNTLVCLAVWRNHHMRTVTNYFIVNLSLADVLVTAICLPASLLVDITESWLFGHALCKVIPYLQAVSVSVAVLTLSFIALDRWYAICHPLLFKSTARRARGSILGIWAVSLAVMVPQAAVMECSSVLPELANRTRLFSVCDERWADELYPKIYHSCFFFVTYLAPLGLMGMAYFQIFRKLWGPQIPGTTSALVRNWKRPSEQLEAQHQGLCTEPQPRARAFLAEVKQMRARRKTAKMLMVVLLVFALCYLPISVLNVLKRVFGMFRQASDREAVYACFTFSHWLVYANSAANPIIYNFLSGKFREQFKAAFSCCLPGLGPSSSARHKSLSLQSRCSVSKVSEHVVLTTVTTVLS

[12] = target: T4, Orexin receptor type 2 (Homo sapiens) (UniProt O43614); assay: Competitive antagonist activity against human orexin-2 receptor expressed in CHO cells assessed as shift in orexin-A CRC at IC50 incubated for 120 mins in presence of orexin-A by Cheng-Prusoff equation analysis; type: cell-based
T4 sequence (whole entry): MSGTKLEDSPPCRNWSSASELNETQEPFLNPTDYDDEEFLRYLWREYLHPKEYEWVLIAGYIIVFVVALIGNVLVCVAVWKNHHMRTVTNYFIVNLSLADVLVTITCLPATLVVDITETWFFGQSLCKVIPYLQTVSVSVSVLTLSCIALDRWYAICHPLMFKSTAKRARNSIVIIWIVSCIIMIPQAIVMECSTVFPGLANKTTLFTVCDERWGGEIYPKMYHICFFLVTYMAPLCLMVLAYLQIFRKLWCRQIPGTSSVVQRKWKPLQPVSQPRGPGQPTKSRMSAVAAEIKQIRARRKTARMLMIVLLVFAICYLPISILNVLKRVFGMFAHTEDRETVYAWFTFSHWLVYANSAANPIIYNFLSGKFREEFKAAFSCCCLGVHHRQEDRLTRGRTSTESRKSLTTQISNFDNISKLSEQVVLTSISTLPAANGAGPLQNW

[13] = Fraction unbound in rat plasma; type: ADME, cell-free
Rattus norvegicus [14] = assay: Increase in time spent in rapid eye movement sleep in Wistar rat sleep model at 100 mg/kg, po administered as single dose during first 6 hrs of night active period post dose relative to vehicle control; type: functional
[15] = target: T1, Orexin/Hypocretin receptor type 1 (Homo sapiens); assay: Inhibition of human orexin-1 receptor expressed in CHO cells assessed as time duration for Kb change preincubated for 120 mins followed by stimulation with orexin-A post compound washout by FLIPR assay; type: cell-based
Rattus norvegicus [16] = assay: Reduction in home cage activity in Wistar rat sleep model at 100 mg/kg, po administered as single dose during first 6 hrs of night active period post dose relative to vehicle control; type: functional; design: scale not given: the % may be the effect or the level left
[17] = target: T4, Orexin receptor type 2 (Homo sapiens); conditions: CHO
Description: Inhibition of human orexin-2 receptor expressed in CHO cells assessed as occupancy half life preincubated for 120 mins followed by stimulation with orexin-A post compound washout measured at 0 to 30 mins by FLIPR assay

[18] = target: T4, Orexin receptor type 2 (Homo sapiens); assay: Inhibition of human orexin-2 receptor expressed in CHO cells assessed as time duration for Kb change preincubated for 120 mins followed by stimulation with orexin-A post compound washout by FLIPR assay; type: cell-based
[19] = target: T4, Orexin receptor type 2 (Homo sapiens); assay: Insurmountable antagonist activity against human orexin-2 receptor expressed in CHO cells assessed as calcium release at IC50 preincubated for 120 mins followed by addition of orexin-A by Cheng-Prusoff equation analysis; type: functional, cell-based
Orexin receptor type 2 = target: T5, Orexin receptor type 2 (Homo sapiens, UniProt O43614); assay: Inhibition of human orexin-2 receptor expressed in CHO cells assessed as calcium release preincubated for 120 mins followed by addition of orexin-A by fluo-4 AM based-FLIPR analysis; type: functional, cell-based
T5 sequence (O43614 whole entry): T4 sequence (whole entry)

Brain = assay: Free drug level in rat brain; type: ADME, tissue-based; conditions: in vivo
[20] = target: T6, Orexin receptor type 2 (Rattus norvegicus) (UniProt P56719); assay: Insurmountable antagonist activity against rat orexin-2 receptor expressed in CHO cells assessed as calcium release at IC50 preincubated for 120 mins followed by addition of orexin-A by Cheng-Prusoff equation analysis; type: functional, cell-based
T6 sequence (whole entry): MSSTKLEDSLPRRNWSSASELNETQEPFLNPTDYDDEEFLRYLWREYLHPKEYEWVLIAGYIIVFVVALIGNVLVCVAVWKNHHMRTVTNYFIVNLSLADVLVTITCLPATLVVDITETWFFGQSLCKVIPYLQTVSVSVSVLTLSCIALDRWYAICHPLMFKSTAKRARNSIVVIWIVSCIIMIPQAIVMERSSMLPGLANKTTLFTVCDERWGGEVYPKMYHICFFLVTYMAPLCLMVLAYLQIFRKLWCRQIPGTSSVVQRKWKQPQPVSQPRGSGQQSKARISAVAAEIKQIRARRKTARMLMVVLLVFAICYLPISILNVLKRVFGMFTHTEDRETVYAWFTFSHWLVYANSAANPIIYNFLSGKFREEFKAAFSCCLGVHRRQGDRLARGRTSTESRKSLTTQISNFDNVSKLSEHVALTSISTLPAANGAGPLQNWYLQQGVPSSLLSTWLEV

Rattus norvegicus [21] = assay: Reduction in time spent in active wake state in Wistar rat sleep model at 100 mg/kg, po administered as single dose during first 6 hrs of night active period post dose relative to vehicle control; type: functional; design: scale not given: the % may be the effect or the level left
[22] = Intrinsic clearance in rat liver microsomes at 1 uM; type: ADME; conditions: read-out: CLH
[23] = target: T1, Orexin/Hypocretin receptor type 1 (Homo sapiens); conditions: CHO
Description: Inhibition of human orexin-1 receptor expressed in CHO cells assessed as occupancy half life preincubated for 120 mins followed by stimulation with orexin-A post compound washout measured at 0 to 30 mins by FLIPR assay

COc1ccc(C[C@@H]2CCCN2C(=O)c2nc(C)sc2-c2ccc3c(c2)OCO3)cc1OC
inhibition [1]: Active | IC50 [2]: 11 nM | Activity (Rattus norvegicus [3]): 17% | microsomal CLint at 1 µM [4]: 197 µL/min/mg | Kb [5]: 5.3 nM | concentration at 3 h [6]: 133 ng/mL | Activity (Rattus norvegicus [7]): Active | Kp [8]: 0.68 | fraction unbound [9]: 0.04 | Activity (Rattus norvegicus [10]): 18% | Kb [11]: 7.3 nM | inhibition [12]: Active | fraction unbound [13]: 0.027 | Activity (Rattus norvegicus [14]): 84% | TIME [15]: 0.0833 h | Activity (Rattus norvegicus [16]): 47% | T1/2 [17]: 5.4 min | TIME [18]: 0.333 h | Kb [19]: 1.4 nM | IC50 (Orexin receptor type 2): 6.6 nM | Drug uptake(free) (Brain): 60 nM | Kb [20]: 1.7 nM | Activity (Rattus norvegicus [21]): -29% | microsomal CLint at 1 µM [22]: > 1250 µL/min/mg | T1/2 [23]: 1.1 min
